Assay [1] relates to gegen Benzimidazol-Anthelmintika resistenten Haemonchus contortus. Briefly: Haemonchus contortus/sheep test, benzimidazole-resistant strain (faecal egg count before and after oral treatment). In kind it is in vivo. The conditions noted are these: read-out: Dosis effectiva minima (Red. ≥90 %) resistenter Stamm. From the text:
(§1) Haemonchus contortus/Schaf
(§2) Experimentell mit normal empfindlichen bzw. mit gegen Benzimidazol-Anthelmintika resistenten Haemonchus contortus infizierte Schafe wurden nach Ablauf der Präpatenzzeit des Parasiten behandelt. Die Wirkstoffe wurde als reiner Wirkstoff in Gelatinekapseln oral appliziert.
(§3) Der Wirkungsgrad wird dadurch bestimmt, daß man die mit dem Kot ausgeschiedenen Wurmeier vor und nach der Behandlung quantitativ auszählt.
(§4) Ein völliges Sistieren der Eiausscheidung nach der Behandlung bedeutet, daß die Würmer abgetrieben wurden oder so geschädigt sind, daß sie keine Eier mehr produzieren (Dosis effectiva).
(§5) Geprüfte Wirkstoffe und wirksame Dosierungen (Dosis effectiva minima) sind aus der nachfolgenden Tabelle ersichtlich: […]

The test system of assay [2] is normal empfindlichen Haemonchus contortus. The assay is described as follows: Haemonchus contortus/sheep test, normally sensitive strain (faecal egg count before and after oral treatment). Format: in vivo. The conditions noted are these: Schaf, pure active substance in gelatine capsules, treated after prepatent period, reduction of worm egg excretion ≥90 %, read-out: Dosis effectiva minima (Red. ≥90 %) normal empfind-licher Stamm.
Description: as §1, §2, §3, §4, §5

[3] abbreviates: Schaf, oral, pure active substance in gelatine capsules, treated after prepatent period, reduction of worm egg excretion ≥90 %, benzimidazole-resistant strain.

Like-named read-outs stand apart in the source and are kept apart here.

On to `CCCSc1ccc2nc(NC(=O)OC)[nH]c2c1` [Albendazol, Methyl-(5-prepylthio-benzimidazol-2-yl)-carbamat], for which the minimal effective dose in assay [1] (po) came out at 5 mg/kg; in assay [2], 0.5 mg/kg.
As for `COC(=O)Nc1nc2ccc(Sc3ccccc3)cc2[nH]1` [Fenbendazol, Methyl-(5-phenyl-thie-benzimidazol-2-yl)-carbamat], the minimal effective dose in assay [1] (po) amounted to 2.5 mg/kg; in assay [2], 0.5 mg/kg.
Consider `CCCCc1ccc2[nH]c(NC(=O)OC)nc2c1` [Parbendazol, 5-N-Butyl-2-methoxycarbonylaminobenzimidazol], for which the minimal effective dose in assay [1] (po) stood at 10 mg/kg; in assay [2], 1 mg/kg.
The like results for `c1ccc2[nH]c(-c3cscn3)nc2c1` [Thiabendazol, 2-(4-Thiazolyl)-benzimidazel] were, in that order, 250 mg/kg and 25 mg/kg.
For the compound `CCOP(=S)(OCC)OC(=CC#N)c1cccc(C)c1` [Verbindung Nr. 12], the minimal effective dose in assay [1] (setting [3]) and in assay [2] was 1 mg/kg in each case.
Consider `CCOP(=S)(OCC)OC(=CC#N)c1ccccc1Br` [Verbindung Nr. 46], for which the minimal effective dose in assay [1] (setting [3]) and in assay [2] was 1 mg/kg each time.
For `CCCOP(=S)(OCC)OC(=CC#N)c1ccccc1C` (centres unmarked) [Verbindung Nr. 89], the minimal effective dose in assay [1] (setting [3]) and in assay [2] was 2.5 mg/kg each time.

These data come from patent EP0033825A2, “2-Cyano-vinyl-(thiono)(thiol)-phosphoric or phosphonic acid derivatives as endoparasiticidal agents” (priority 1980, dated 1981).
